Data published in patent US20080242661A1, “Novel compounds useful for the treatment of degenerative & inflammatory diseases” (priority 2006, published 2008).

Target: purified PDE1A enzyme (Homo sapiens, UniProt P54750)
Test: In vitro PDE1A assay, dose response (Biomol Cyclic Nucleotide Phosphodiesterase Assay Kit, colorimetric)
Format: biochemical
Conditions: 100 μM cAMP, 45 min at 37° C., 8 points from 20 μM, duplicate
Outline: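 Purified PDE1A with 100 μM cAMP and 5′-nucleotidase, incubated 45 min at 37° C in Tris 20 mM pH 7.4 with calmodulin, MgCl2 and CaCl2; released phosphate read by malachite-green absorbance at 615 nm. Duplicate 8-point ⅓ dilutions from 20 μM in 1% DMSO; 10 μM vardenafil defines 100% inhibition.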

| Compound | IC50 |
| --- | --- |
| Cc1nc(-c2ccccc2)sc1CN(C)c1nc2c(C(C)(C)C)nn(C)c2c(=O)[nH]1 [Example 80, 3-tert-butyl-1-methyl-5-(methyl((4-methyl-2-phenylthiazol-5-yl)methyl)amino)-1H-pyrazolo[4,3-d]pyrimidin-7(6H)-one] | < 100 nM |
| CN(Cc1cc(-c2ccccc2)nn1C)c1nc2c(C(C)(C)C)nn(C)c2c(=O)[nH]1 [Example 81, 3-tert-butyl-1-methyl-5-(methyl((1-methyl-3-phenyl-1H-pyrazol-5-yl)methyl)amino)-1H-pyrazolo[4,3-d]pyrimidin-7(6H)-one] | < 100 nM |
| CCCc1nn(C)c2c(=O)[nH]c(NCCc3ccc(OCC)c(OCC)c3)nc12 [Example 82, 5-(3,4-diethoxyphenethylamino)-1-methyl-3-propyl-1H-pyrazolo[4,3-d]pyrimidin-7(6H)-one] | > 500 nM |
| CCCc1nn(C)c2c(=O)[nH]c(NCc3nnc4ccccn34)nc12 [Example 83, 5-([1,2,4]triazolo[4,3-a]pyridin-3-ylmethylamino)-1-methyl-3-propyl-1H-pyrazolo[4,3-d]pyrimidin-7(6H)-one] | 101 to 500 nM |
| CC1CCCCN1c1nc2c(C3CCCC3)nn(C)c2c(=O)[nH]1 (stereo not shown) [Example 84, 3-cyclopentyl-1-methyl-5-(2-methylpiperidin-1-yl)-1H-pyrazolo[4,3-d]pyrimidin-7(6H)-one] | > 500 nM |
| Cn1nc(C2CCCC2)c2nc(N3CCCCC3)[nH]c(=O)c21 [Example 85, 3-cyclopentyl-1-methyl-5-(piperidin-1-yl)-1H-pyrazolo[4,3-d]pyrimidin-7(6H)-one] | > 500 nM |
| Cn1nc(C2CCCC2)c2nc(N3CCCC3c3ccccc3)[nH]c(=O)c21 (stereo not shown) [Example 86, 3-cyclopentyl-1-methyl-5-(2-phenylpyrrolidin-1-yl)-1H-pyrazolo[4,3-d]pyrimidin-7(6H)-one] | < 100 nM |
| CCCc1nn(C)c2c(=O)[nH]c(NCCc3ccc(F)cc3)nc12 [Example 87, 5-(4-fluorophenethylamino)-1-methyl-3-propyl-1H-pyrazolo[4,3-d]pyrimidin-7(6H)-one] | > 500 nM |
| CCCc1nn(C)c2c(=O)[nH]c(NCCc3cnn(-c4ccccc4)c3)nc12 [Example 88, 1-methyl-5-(2-(1-phenyl-1H-pyrazol-4-yl)ethylamino)-3-propyl-1H-pyrazolo[4,3-d]pyrimidin-7(6H)-one] | > 500 nM |
| CCCN(CCC)c1nc2c(C(C)(C)C)nn(C)c2c(=O)[nH]1 [Example 89, 3-tert-butyl-5-(dipropylamino)-1-methyl-1H-pyrazolo[4,3-d]pyrimidin-7(6H)-one] | < 100 nM |
| Cc1nc(-c2cccc(CN(C)c3nc4c(C(C)(C)C)nn(C)c4c(=O)[nH]3)c2)cs1 [Example 90, 3-tert-butyl-1-methyl-5-(methyl(3-(2-methylthiazol-4-yl)benzyl)amino)-1H-pyrazolo[4,3-d]pyrimidin-7(6H)-one] | < 100 nM |
| CCCc1nn(C)c2c(=O)[nH]c(NCc3c(C)nn(Cc4ccccc4)c3C)nc12 [Example 91, 5-((1-benzyl-3,5-dimethyl-1H-pyrazol-4-yl)methylamino)-1-methyl-3-propyl-1H-pyrazolo[4,3-d]pyrimidin-7(6H)-one] | 101 to 500 nM |
| CN1CCN(c2cccc(CNc3nc4c(C(C)(C)C)nn(C)c4c(=O)[nH]3)c2)CC1 [Example 92, 3-tert-butyl-1-methyl-5-(3-(4-methylpiperazin-1-yl)benzylamino)-1H-pyrazolo[4,3-d]pyrimidin-7(6H)-one] | < 100 nM |
| CC(C)CN(Cc1cccc(-n2cccn2)c1)c1nc2c(C(C)(C)C)nn(C)c2c(=O)[nH]1 [Example 93] | < 100 nM |
| CCCc1nn(C)c2c(=O)[nH]c(N(Cc3cccc(-n4cccn4)c3)CC(C)C)nc12 [Example 94] | < 100 nM |
| CC(C)CN(Cc1cccc(-n2cncn2)c1)c1nc2c(C(C)(C)C)nn(C)c2c(=O)[nH]1 [Example 95] | < 100 nM |

| Compound | IC50 |
| --- | --- |
| CCCc1nn(C)c2c(=O)[nH]c(N(Cc3cccc(-n4cncn4)c3)CC(C)C)nc12 [Example 96] | < 100 nM |
| CC(C)CN(Cc1ccc(F)cc1)c1nc2c(C(C)(C)C)nn(C)c2c(=O)[nH]1 [Example 97, 3-tert-butyl-5-((4-fluorobenzyl)(isobutyl)amino)-1-methyl-1H-pyrazolo[4,3-d]pyrimidin-7(6H)-one] | < 100 nM |
| CCCc1nn(C)c2c(=O)[nH]c(N(Cc3ccc(F)cc3)CC(C)C)nc12 [Example 98, 5-((4-fluorobenzyl)(isobutyl)amino)-1-methyl-3-propyl-1H-pyrazolo[4,3-d]pyrimidin-7(6H)-one] | < 100 nM |
| CC(C)CN(C)c1nc2c(C(C)(C)C)nn(C)c2c(=O)[nH]1 [Example 99, 3-tert-butyl-5-(isobutyl(methyl)amino)-1-methyl-1H-pyrazolo[4,3-d]pyrimidin-7(6H)-one] | < 100 nM |
| CC(C)CN(Cc1cccc(-n2cccc2)c1)c1nc2c(C(C)(C)C)nn(C)c2c(=O)[nH]1 [Example 100] | < 100 nM |
| CCCc1nn(C)c2c(=O)[nH]c(N(Cc3cccc(-n4cccc4)c3)CC(C)C)nc12 [Example 101] | < 100 nM |
| CCCc1nn(C)c2c(=O)[nH]c(N(Cc3cccc(N4CCN(C)CC4)c3)CC(C)C)nc12 [Example 102, 5-(isobutyl(3-(4-methylpiperazin-1-yl)benzyl)amino)-1-methyl-3-propyl-1H-pyrazolo[4,3-d]pyrimidin-7(6H)-one] | < 100 nM |
| Cn1nc(C(C)(C)C)c2nc(N(CCC(C)(C)C)Cc3cccc(N4CCOCC4)c3)[nH]c(=O)c21 [Example 103, 3-tert-butyl-5-((3,3-dimethylbutyl)(3-morpholinobenzyl)amino)-1-methyl-1H-pyrazolo[4,3-d]pyrimidin-7(6H)-one] | < 100 nM |
| CCCC(C)CN(Cc1cccc(N2CCOCC2)c1)c1nc2c(C(C)(C)C)nn(C)c2c(=O)[nH]1 (stereo not shown) [Example 104, 3-tert-butyl-1-methyl-5-((2-methylpentyl)(3-morpholinobenzyl)amino)-1H-pyrazolo[4,3-d]pyrimidin-7(6H)-one] | < 100 nM |
| CCC(CC)CN(C)c1nc2c(C(C)(C)C)nn(C)c2c(=O)[nH]1 [Example 105, 3-tert-butyl-5-((2-ethylbutyl)(methyl)amino)-1-methyl-1H-pyrazolo[4,3-d]pyrimidin-7(6H)-one] | < 100 nM |
| CCCc1nn(C)c2c(=O)[nH]c(N(CCC(C)C)Cc3cccc(-n4cccn4)c3)nc12 [Example 106] | < 100 nM |
| CCCc1nn(C)c2c(=O)[nH]c(N(Cc3cccc(-n4cccn4)c3)CC(CC)CC)nc12 [Example 107] | < 100 nM |
| CCCc1nn(C)c2c(=O)[nH]c(N(CCC(C)(C)C)Cc3cccc(N4CCOCC4)c3)nc12 [Example 108, 5-((3,3-dimethylbutyl)(3-morpholinobenzyl)amino)-1-methyl-3-propyl-1H-pyrazolo[4,3-d]pyrimidin-7(6H)-one] | < 100 nM |
| CCC(CC)CN(Cc1cccc(N2CCOCC2)c1)c1nc2c(C(C)(C)C)nn(C)c2c(=O)[nH]1 [Example 109, 3-tert-butyl-5-((2-ethylbutyl)(3-morpholinobenzyl)amino)-1-methyl-1H-pyrazolo[4,3-d]pyrimidin-7(6H)-one] | < 100 nM |
| CCCc1nn(C)c2c(=O)[nH]c(N(C)CCC(C)(C)C)nc12 [Example 110, 5-((3,3-dimethylbutyl)(methyl)amino)-1-methyl-3-propyl-1H-pyrazolo[4,3-d]pyrimidin-7(6H)-one] | < 100 nM |
